Test results from publication PMC11340618 (iScience, 2024).
In brackets after ≈: the same amount, converted by molar mass. Several values for one entry are separate records, joined by “and”; a condition that tells them apart may be missing. Equal values may be shown once. Read-outs that look alike come from different tables or passages of the source.

Tests used:
[1] = test system: intracellular M. tuberculosis H37Rv (WT); assay: microbe, parasite or virus in culture; type: cell-based; conditions: Mycobacterium tuberculosis, 72 h
[2] = test system: intracellular M. tuberculosis ΔptpA; type: cell-based, Mycobacterium tuberculosis
GSK3β = molecular target: T1, GSK3β (Homo sapiens, UniProt P49841); assay: in vitro inhibition of GSK3β, ADP-Glo Kinase assay (SignalChem); type: biochemical; conditions: normalized to negative control
T1 construct: purchased SignalChem (Richmond, BC, Canada), contract assay service
T1 sequence (P49841 whole entry): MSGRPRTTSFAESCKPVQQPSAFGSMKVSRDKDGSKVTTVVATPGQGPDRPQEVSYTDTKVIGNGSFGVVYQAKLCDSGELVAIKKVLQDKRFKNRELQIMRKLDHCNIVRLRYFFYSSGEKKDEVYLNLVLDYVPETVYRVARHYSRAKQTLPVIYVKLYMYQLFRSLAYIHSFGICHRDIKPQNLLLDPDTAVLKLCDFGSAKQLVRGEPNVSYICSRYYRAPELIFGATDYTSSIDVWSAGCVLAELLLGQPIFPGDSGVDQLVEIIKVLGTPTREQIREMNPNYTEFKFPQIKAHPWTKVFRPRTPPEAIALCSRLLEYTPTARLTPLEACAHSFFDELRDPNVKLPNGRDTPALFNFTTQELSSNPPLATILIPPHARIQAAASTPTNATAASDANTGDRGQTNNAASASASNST
Experimental: Samples of three GSK3 inhibitors (P-4423632, P-0717632, P-3817632) were sent to SignalChem (Richmond, BC, Canada) where a compound selectivity assay was performed and the IC50 values of the inhibitors were determined.
Figure S3: in vitro inhibition of GSK3β by selected inhibitors, related to Star Methods: Determination of IC50 of GSK3 inhibitors. GSK3β activity was measured using the ADP-GloTM Kinase assay and normalized to the negative control (100% kinase activity). Curve was fit using non-linear regression analysis calculated with GraphPad Prism software.
(also on this page, place not known: % Inhibition GSK3β % Inhibition GSK3β % Inhibition GSK3β IC50)

[3] = test system: Mycobacterium tuberculosis H37Rv in THP-1; assay: Minimal inhibitory concentrations of P-4423632 against Mtb H37Rv in THP-1 (Table S3); type: cell-based
From the text: Table S3. Minimal inhibitory concentrations of P-4423632 against Mycobacterium tuberculosis H37Rv in cell lines and in broth, and inhibitory concentrations (toxicity level) to THP-1 cells. Related to Figure 2.

[4] = test system: Mycobacterium tuberculosis H37Rv in hMDM; assay: microbe, parasite or virus in culture; type: cell-based
[5] = Cytotoxicity analysis (MTT assay); type: cell-based; conditions: human, differentiated THP-1 cells, toxicity level to THP-1 cells
Experimental: The MTT assay was performed as described previously.[19] […] At the 69.5-hour time point, 25 μL of 3-(4,5-dimethylthiazol-2-yl)-2,5-diphenyltetrazolium bromide (MTT) solution were added to each well. […] The absorbance of each well was read at 570 nm and these values were used to calculate the percentage of viable cells.

Acinetobacter baumannii = assay: Disk assay, in vitro activity; type: cell-based
Bacillus subtilis = assay: Disk assay, in vitro activity; type: cell-based
Escherichia coli = assay: Disk assay, in vitro activity; type: cell-based
Enterococcus faecalis = assay: Disk assay, in vitro activity; type: cell-based; conditions: up to 25 μg of P-4423632
Moraxella catarrhalis = assay: Disk assay, in vitro activity; type: cell-based
Pseudomonas aeruginosa = assay: Disk assay, in vitro activity; type: cell-based
Staphylococcus aureus = assay: Disk assay, in vitro activity; type: cell-based
MRSA = assay: Disk assay, in vitro activity; type: cell-based; conditions: up to 25 μg of P-4423632
[6] = test system: Staphylococcus epidermidis; assay: Disk assay, in vitro activity; type: cell-based
Salmonella typhimurium = assay: Disk assay, in vitro activity; type: cell-based
Mycobacterium marinum = assay: Disk assay, in vitro activity; type: cell-based; conditions: up to 25 μg of P-4423632
[7] = test system: Mycobacterium intracellulare; assay: Disk assay, in vitro activity; type: cell-based
Mycobacterium bovis BCG = type: cell-based
Mycobacterium smegmatis = type: cell-based; conditions: up to 100 μg of P-4423632
Mycobacterium abscessus = type: cell-based; conditions: up to 100 μg of P-4423632
[8] = test system: Mycobacterium tuberculosis H37Rv auxotroph, mc2 6206; type: cell-based
M. avium avium = assay: Disk assay, in vitro activity; type: cell-based
[9] = test system: panel of bacteria, including Mtb; type: cell-based
[10] = test system: intracellular Mtb in GSK3α KO / GSK3β KO THP-1 cells; type: cell-based, Mycobacterium tuberculosis; conditions: 10 μM P-4423632, 72 h
THP-1 cells = assay: Annexin V FITC apoptosis assay, flow cytometry; type: cell-based, human
[11] = test system: Campylobacter jejuni in Caco-2 cells; assay: Caco-2 infection with C. jejuni, CFU; type: cell-based; conditions: two-fold serial dilutions, 24h
Experimental: Isolated colonies from overnight culture grown on Muller -Hinton (MH) plates in microaerophilic conditions were inoculated into liquid MH media and grown overnight. Bacteria were pelleted by centrifugation and resuspended in DMEM media. The bacteria were then added at an MOI of 100-400 to Caco-2 cells in 24-well plates at 10^5 cells per well. After 2 h of incubation, infected cells were washed with fresh DMEM and incubated an additional 2 h with 100-200 μg/ml gentamycin followed by the addition of test compounds and incubation for 24 h. After incubation, cells were washed with fresh DMEM and lysed by osmotic shock with sterile […] and passed through a 27G needle with a syringe. The lysate was serially diluted and plated in MH agar using the pouring plate method. CFU were then counted after a 24 - 48 h incubation. To assess cell survival, a duplicate of the previous conditions was used to undergo MTT assay or cell count with the CX5 using DAPI staining. […]
intracellular bacteria. Related to Star Methods describing C. Jejuni and S. enterica infections. […] Percent inhibition was calculated by subtracting CFU values as a percentage of the untreated DMSO control (plotted at 0.1 µM) from 100%. […] Curve was fit using non-linear regression analysis of log (inhibitor) vs. response (variable slope) calculated with GraphPad Prism 10. […]

[12] = test system: Salmonella enterica serovar Typhimurium in THP-1 cells; assay: THP-1 infection with S. typhimurium, high content screening; type: cell-based; conditions: MOI 10:1, 24h
[13] = test system: GSK3α Y279 / GSK3β Y216 phosphorylation; assay: Western blot of Y279 - Y216 phosphorylation status of GSK3α and GSK3β in THP-1 cells; type: cell-based, human
[14] = test system: intracellular Mtb H37Rv in THP-1 cells; assay: Dose dependent activity against intracellular Mtb, high content analysis of fluorescent Mtb (Fig 3E); type: cell-based, Mycobacterium tuberculosis
[15] = test system: Mycobacterium tuberculosis H37Rv in broth; assay: In-broth activity analysis (resazurin assay)
Mtb infection = test system: Mtb infection; parameters: method as in PMID 35095838; conditions: GSK3α/β inhibition ref 56; cited from earlier work

CSc1ccc(-n2cnc3ccc(-c4nnc(CCc5cccc(C#N)c5)o4)cc32)cc1 [P-0717632]
MIC50 [1]: 0.4 µM (≈ 0.175 µg/mL) | MIC25 ΔptpA [2]: > 25 µM | MIC50 ΔptpA [2]: > 25 µM

CSc1ccc(-n2cnc3ccc(-c4nnc(CCc5cccc(C(F)(F)F)c5)o4)cc32)cc1 [P-3817632]
IC50 (GSK3β): 0.28 µM | MIC25 [1]: 0.6 µM (≈ 0.288 µg/mL) | MIC50 [1]: 2 µM (≈ 0.961 µg/mL) | MIC25 ΔptpA [2]: 13.8 µM (≈ 6.63 µg/mL) | MIC50 ΔptpA [2]: > 25 µM

O=C(NCc1ccccn1)Nc1cc(N2CC(CCc3ccccc3)CC2=O)ccn1 (stereo not shown) [P-4423632]
IC50 (GSK3β): 0.748 µM | MIC25 [1]: 2.9 µM (≈ 1.2 µg/mL) | MIC50 [1]: 6.4 µM (≈ 2.66 µg/mL) | MIC25 ΔptpA [2]: > 25 µM | MIC50 ΔptpA [2]: > 25 µM | IC50 ([3]; H37RV, THP-1, read-out: (M)IC50): 2.31e-06 M | IC90 ([3]; Mtb H37Rv in THP-1): 16 µM | IC50 ([4]; Mycobacterium tuberculosis, Macrophage, Mtb H37Rv in hMDM): 4.17 µM | effect on Mtb intracellular replication in hMDMs ([4]; hMDMs combined from two donors, 72 h): restricted Mtb intracellular replication in a dose dependent manner | IC50 at 72 h ([5]; read-out: (M)IC50, cytotoxicity in THP1): 7.78e-05 M | IC90 at 72 h ([5]; read-out: (M)IC90, cytotoxicity in THP1): 0.000115 M | Disk assay susceptibility (Acinetobacter baumannii; up to 25 μg of P-4423632): R | Disk assay susceptibility (Bacillus subtilis; up to 25 μg of P-4423632): R | Disk assay susceptibility (Escherichia coli; up to 25 μg of P-4423632): R | Disk assay susceptibility (Enterococcus faecalis): R | Disk assay susceptibility (Moraxella catarrhalis; up to 25 μg of P-4423632): R | Disk assay susceptibility (Pseudomonas aeruginosa; up to 25 μg of P-4423632): R | Disk assay susceptibility (Staphylococcus aureus; up to 25 μg of P-4423632): R | Disk assay susceptibility (MRSA): R | Disk assay susceptibility ([6]; up to 25 μg of P-4423632): R | Disk assay susceptibility (Salmonella typhimurium; up to 25 μg of P-4423632): R | Disk assay susceptibility (Mycobacterium marinum): R | Disk assay susceptibility ([7]; up to 25 μg of P-4423632): R | Disk assay susceptibility (Mycobacterium bovis BCG; up to 25 μg of P-4423632): R | Disk assay susceptibility (Mycobacterium smegmatis): R | Disk assay susceptibility (Mycobacterium abscessus): R | Disk assay susceptibility [8]: R | Disk assay susceptibility (M. avium avium; up to 25 μg of P-4423632): R | activity in disk-diffusion antibiotics susceptibility assay [9]: inactive | Reduction % of intracellular Mtb survival vs untreated counterpart ([10]; GSK3α KO THP-1 cells): over 75% | Reduction % of intracellular Mtb survival vs untreated counterpart ([10]; GSK3β KO THP-1 cells): ~50% | Apoptotic cells (THP-1 cells): 16.31% and 30.57% and 31.59% | Dead cells (THP-1 cells): 9.32% and 6.98% | Live cells (THP-1 cells): 67.62% and 58.79% and 58.44% | effect on apoptosis of infected THP-1 cells (THP-1 cells): upregulation of apoptosis | activity against intracellular C. jejuni [11]: active in a dose-dependent manner | activity against intracellular S. Typhimurium [12]: active in a dose-dependent manner | phosphorylation of GSK3α Y279 and GSK3β Y216 [13]: reduced phosphorylation of both Y279 and Y216 | dose-dependent activity against intracellular Mtb [14]: dose-dependent activity | effect on host cell viability (hMDM): no effect on host cell viability | in-broth MIC50 compared to intracellular activity ([15]; in broth vs intracellular): over 10 fold | IC50 ([15]; read-out: (M)IC50, Mtb H37Rv in broth): 3.88e-05 M | IC90 ([15]; read-out: (M)IC90, Mtb H37Rv in broth): 4.33e-05 M

Cc1nnc(-c2ccc3occ(-c4ccc([S+](C)[O-])c(OC(F)(F)F)c4)c3c2)o1 (stereo not shown) [P-5782442]
MIC25 [1]: 1.6 µM (≈ 0.676 µg/mL) | MIC50 [1]: > 25 µM | MIC25 ΔptpA [2]: > 25 µM | MIC50 ΔptpA [2]: > 25 µM

Cn1cc(C2=C(c3ccc(Cl)cc3Cl)C(=O)NC2=O)c2ccccc21 [SB216763]
effect on Mtb infection (Mtb infection): increased Mtb infection

Gentamycin [reference compound]
Control (mm), disk assay clearing (Acinetobacter baumannii; Gen 10 μg): 20 mm | Control (mm), disk assay clearing (Bacillus subtilis; Gen 10 μg): 24 mm | Control (mm), disk assay clearing (Escherichia coli; Gen 10 μg): 18 mm | Control (mm), disk assay clearing (Moraxella catarrhalis; Gen 10 μg): 30 mm | Control (mm), disk assay clearing (Pseudomonas aeruginosa; Gen 10 μg): 21 mm | Control (mm), disk assay clearing (Staphylococcus aureus; Gen 10 μg): 25 mm | Control (mm), disk assay clearing ([6]; Gen 10 μg): 26 mm | Control (mm), disk assay clearing (Salmonella typhimurium; Gen 10 μg): 20 mm | Control (mm), disk assay clearing ([7]; Gen 12.5 μg): 20 mm | Control (mm), disk assay clearing (Mycobacterium bovis BCG; Gen 10 μg): 30 mm | Control (mm), disk assay clearing (M. avium avium; Gen 12.5 μg): 21 mm
